Source: patent US20170000749A1, “Methods for Treating Cognitive Disorders Using Inhibitors of Histone Deacetylase” (Forum Pharmaceuticals, Inc., priority 2008, published 2017)
Where two headings read alike, the source gives them in different places.

What was measured:
[1] = target: one or more of HDAC-1, HDAC-2, HDAC-3, HDAC-4, HDAC-5, HDAC-6, HDAC-7, HDAC-8, HDAC-9, HDAC-10 and HDAC-11; assay: Inhibition of Histone Deacetylase Enzymatic Activity (Boc-Lys(Ac)-AMC substrate, Fluor-de-Lys developer); assay type: biochemical; details: read-out: HDAC Inhibition (IC50 μM) HDAC Enzyme
Procedure: The following protocol is used to assay the compounds of the disclosure.
The mixture is pre-incubated for 5 minutes at room temperature. The reaction is started by bringing the temperature to 37° C. and adding 16 μl substrate. Total reaction volume is 50 μl.
In the Tables 8, 9 and 10, A≦0.05 μM; 0.05 μM<B≦0.1 μM; 0.1 μM<C≦1 μM; and 1 μM<D≦10 μM.

[2] = system: HDAC activity in primary mouse cortical cultures; assay: Whole-Cell Histone Deacetylase (HDAC) Inhibition Assay in Primary Mouse Cortical Cultures; assay type: cell-based; details: whole-cell (WC), mouse cortical neurons, read-out: HDAC Inhibition (IC50 μM) WC mouse cortical neurons
How it was run: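 Primary neocortical neurons from E17 Balb/C mouse embryos were plated at 50000 cells/well and treated at DIV9 with ten-point DMSO dilutions for 16-18 h at 37° C, in triplicate. BOC-Lys(Ac)-AMC substrate was then added for 1 h. Fluor de Lys developer containing 1 uM TSA produced a fluorophore, which was read.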

SMILES | IC50 ([1]; Table 9) [µM] | IC50 ([2]; Table 9) [µM] | further results
CCCc1cccc2c1Oc1ccccc1N=C2c1ccc(C(=O)NO)cc1 [(Z)—N-hydroxy-4-(4-propyldibenzo[b,f][1,4]oxazepin-11-yl)benzamide] | – | – | IC50 ([1]; Table 8): 0.1 to 1 µM; IC50 ([2]; Table 8): > 15 µM
COCCN1c2ccccc2N=C(c2ccc(C(=O)NO)cc2)c2ccccc21 [(Z)—N-hydroxy-4-(5-(2-methoxyethyl)-5H-dibenzo[b,e][1,4]diazepin-11-yl)benzamide] | – | – | IC50 ([1]; Table 8): 0.1 to 1 µM; IC50 ([2]; Table 8): 1 to 5 µM
CC(C)N1c2ccccc2N=C(c2ccc(C(=O)NO)cc2)c2ccccc21 [(Z)—N-hydroxy-4-(5-isopropyl-5H-dibenzo[b,e][1,4]diazepin-11-yl)benzamide] | – | – | IC50 ([1]; Table 8): < 0.05 µM; IC50 ([2]; Table 8): < 1 µM
Cc1cccc2c1Oc1ccccc1C(c1ccc(C(=O)NO)cc1)=N2 [(Z)—N-hydroxy-4-(6-methyldibenzo[b,f][1,4]oxazepin-11-yl)benzamide] | – | – | IC50 ([1]; Table 8): 0.1 to 1 µM; IC50 ([2]; Table 8): 5 to 15 µM
O=C(NO)c1ccc(C2=Nc3ccc(C(F)(F)F)cc3Oc3ccccc32)cc1 [(Z)—N-hydroxy-4-(7-(trifluoromethyl)dibenzo[b,f][1,4]oxazepin-11-yl)benzamide] | – | – | IC50 ([1]; Table 8): 0.1 to 1 µM; IC50 ([2]; Table 8): > 15 µM
O=C(NO)c1ccc(C2=Nc3cc(C(F)(F)F)ccc3Oc3ccccc32)cc1 [(Z)—N-hydroxy-4-(8-(trifluoromethyl)dibenzo[b,f][1,4]oxazepin-11-yl)benzamide] | – | – | IC50 ([1]; Table 8): 0.1 to 1 µM; IC50 ([2]; Table 8): 5 to 15 µM
Cc1ccc2c(c1)N=C(c1ccc(C(=O)NO)cc1)c1ccccc1O2 [(Z)—N-hydroxy-4-(8-methyldibenzo[b,f][1,4]oxazepin-11-yl)benzamide] | – | – | IC50 ([1]; Table 8): 0.05 to 0.1 µM; IC50 ([2]; Table 8): 1 to 5 µM
O=C(NO)c1cnc(N2CCn3c(nnc3C(F)(F)F)C2)nc1 [N-hydroxy-2-(3-(trifluoromethyl)-5,6-dihydro-[1,2,4]triazolo[4,3-a]pyrazin-7(8H)-yl)pyrimidine-5-carboxamide] | – | – | IC50 ([1]; Table 10): 0.05 to 0.1 µM; IC50 ([2]; Table 10): 1 to 5 µM
O=C(NO)c1cnc(N2CCn3c(nnc3-c3ccccc3)C2)nc1 [N-hydroxy-2-(3-phenyl-5,6-dihydro-[1,2,4]triazolo[4,3-a]pyrazin-7(8H)-yl)pyrimidine-5-carboxamide] | – | – | IC50 ([1]; Table 10): < 0.05 µM; IC50 ([2]; Table 10): 1 to 5 µM
O=C(Cc1ccc(CN2C(=O)c3ccccc3Oc3ccccc32)cc1)NO [N-hydroxy-2-(4-((11-oxodibenzo[b,f][1,4]oxazepin-10(11H)-yl)methyl)phenyl)acetamide] | – | – | IC50 ([1]; Table 10): 0.1 to 1 µM; IC50 ([2]; Table 10): 1 to 5 µM
O=C(NO)c1cnc(N2CC3CC(CN(c4cc(C(F)(F)F)ccn4)C3)C2)nc1 [N-hydroxy-2-(7-(4-(trifluoromethyl)pyridin-2-yl)-3,7-diazabicyclo[3.3.1]nonan-3-yl)pyrimidine-5-carboxamide] | 0.1 to 1 | > 15 | –
O=C(NO)c1cnc(N2C[C@H]3C[C@@H]2CN3c2cc(C(F)(F)F)ccn2)nc1 [N-hydroxy-2-((1R,4R)-5-(4-(trifluoromethyl)pyridin-2-yl)-2,5-diazabicyclo[2.2.1]heptan-2-yl)pyrimidine-5-carboxamide] | < 0.05 | < 1 | –
Cc1cccc(N2C[C@H]3C[C@@H]2CN3c2ncc(C(=O)NO)cn2)c1 [N-hydroxy-2-((1R,4R)-5-m-tolyl-2,5-diazabicyclo[2.2.1]heptan-2-yl)pyrimidine-5-carboxamide] | 0.05 to 0.1 | < 1 | –
Cc1ccc(N2C[C@H]3C[C@@H]2CN3c2ncc(C(=O)NO)cn2)cc1 [N-hydroxy-2-((1R,4R)-5-p-tolyl-2,5-diazabicyclo[2.2.1]heptan-2-yl)pyrimidine-5-carboxamide] | < 0.05 | < 1 | –
O=C(NO)c1cnc(N2C[C@@H]3C[C@H]2CN3c2ccccc2C(F)(F)F)nc1 [N-hydroxy-2-((1S,4S)-5-(2-(trifluoromethyl)phenyl)-2,5-diazabicyclo[2.2.1]heptan-2-yl)pyrimidine-5-carboxamide] | 0.1 to 1 | 1 to 5 | –
O=C(NO)c1cnc(N2C[C@@H]3C[C@H]2CN3c2cc(C(F)(F)F)nc3ccccc23)nc1 [N-hydroxy-2-((1S,4S)-5-(2-(trifluoromethyl)quinolin-4-yl)-2,5-diazabicyclo[2.2.1]heptan-2-yl)pyrimidine-5-carboxamide] | < 0.05 | < 1 | –
O=C(NO)c1cnc(N2C[C@@H]3C[C@H]2CN3c2cccc(OC(F)(F)F)c2)nc1 [N-hydroxy-2-((1S,4S)-5-(3-(trifluoromethoxy)phenyl)-2,5-diazabicyclo[2.2.1]heptan-2-yl)pyrimidine-5-carboxamide] | < 0.05 | < 1 | –
O=C(NO)c1cnc(N2C[C@@H]3C[C@H]2CN3C(=O)c2cccc(C(F)(F)F)c2)nc1 [N-hydroxy-2-((1S,4S)-5-(3-(trifluoromethyl)benzoyl)-2,5-diazabicyclo[2.2.1]heptan-2-yl)pyrimidine-5-carboxamide] | 0.05 to 0.1 | 1 to 5 | –
O=C(NO)c1cnc(N2C[C@@H]3C[C@H]2CN3c2cccc(C(F)(F)F)c2)nc1 [N-hydroxy-2-((1S,4S)-5-(3-(trifluoromethyl)phenyl)-2,5-diazabicyclo[2.2.1]heptan-2-yl)pyrimidine-5-carboxamide] | < 0.05 | < 1 | –
O=C(NO)c1cnc(N2C[C@@H]3C[C@H]2CN3c2cccc(C(F)(F)F)c2)s1 [N-hydroxy-2-((1S,4S)-5-(3-(trifluoromethyl)phenyl)-2,5-diazabicyclo[2.2.1]heptan-2-yl)thiazole-5-carboxamide] | < 0.05 | 1 to 5 | –
O=C(NO)c1cnc(N2C[C@@H]3C[C@H]2CN3c2cccc(SC(F)(F)F)c2)nc1 [N-hydroxy-2-((1S,4S)-5-(3-(trifluoromethylthio)phenyl)-2,5-diazabicyclo[2.2.1]heptan-2-yl)pyrimidine-5-carboxamide] | < 0.05 | 1 to 5 | –
COc1cccc(N2C[C@@H]3C[C@H]2CN3c2ncc(C(=O)NO)cn2)c1 [N-hydroxy-2-((1S,4S)-5-(3-methoxyphenyl)-2,5-diazabicyclo[2.2.1]heptan-2-yl)pyrimidine-5-carboxamide] | < 0.05 | < 1 | –
O=C(CCn1cc(CN2C(=O)c3ccccc3Oc3ccccc32)nn1)NO [N-hydroxy-3-(4-((11-oxodibenzo[b,f][1,4]oxazepin-10(11H)-yl)methyl)-1H-1,2,3-triazol-1-yl)propanamide] | – | – | IC50 ([1]; Table 10): 0.1 to 1 µM; IC50 ([2]; Table 10): 1 to 5 µM

More lines, main results first:

IC50 ([1]; Table 9) [µM] | IC50 ([2]; Table 9) [µM] | SMILES | further results
< 0.05 | 1 to 5 | O=C(NO)c1cnc(N2C[C@@H]3C[C@H]2CN3c2ccc(C(F)(F)F)cc2)nc1 [N-hydroxy-2-((1S,4S)-5-(4-(trifluoromethyl)phenyl)-2,5-diazabicyclo[2.2.1]heptan-2-yl)pyrimidine-5-carboxamide] | –
< 0.05 | < 1 | O=C(NO)c1cnc(N2C[C@@H]3C[C@H]2CN3c2cc(C(F)(F)F)ccn2)nc1 [N-hydroxy-2-((1S,4S)-5-(4-(trifluoromethyl)pyridin-2-yl)-2,5-diazabicyclo[2.2.1]heptan-2-yl)pyrimidine-5-carboxamide] | –
< 0.05 | < 1 | O=C(NO)c1cnc(N2C[C@@H]3C[C@H]2CN3c2nccc(C(F)(F)F)n2)nc1 [N-hydroxy-2-((1S,4S)-5-(4-(trifluoromethyl)pyrimidin-2-yl)-2,5-diazabicyclo[2.2.1]heptan-2-yl)pyrimidine-5-carboxamide] | –
< 0.05 | < 1 | O=C(NO)c1cnc(N2C[C@@H]3C[C@H]2CN3c2cncc(C(F)(F)F)c2)nc1 [N-hydroxy-2-((1S,4S)-5-(5-(trifluoromethyl)pyridin-3-yl)-2,5-diazabicyclo[2.2.1]heptan-2-yl)pyrimidine-5-carboxamide] | –
< 0.05 | < 1 | O=C(NO)c1cnc(N2C[C@@H]3C[C@H]2CN3c2cccc(C(F)(F)F)n2)nc1 [N-hydroxy-2-((1S,4S)-5-(6-(trifluoromethyl)pyridin-2-yl)-2,5-diazabicyclo[2.2.1]heptan-2-yl)pyrimidine-5-carboxamide] | –
0.05 to 0.1 | < 1 | O=C(NO)c1cnc(N2C[C@@H]3C[C@H]2CN3C(=O)N2CCCC2)nc1 [N-hydroxy-2-((1S,4S)-5-(pyrrolidine-1-carbonyl)-2,5-diazabicyclo[2.2.1]heptan-2-yl)pyrimidine-5-carboxamide] | –
< 0.05 | < 1 | Cc1cccc(N2C[C@@H]3C[C@H]2CN3c2ncc(C(=O)NO)cn2)c1 [N-hydroxy-2-((1S,4S)-5-m-tolyl-2,5-diazabicyclo[2.2.1]heptan-2-yl)pyrimidine-5-carboxamide] | –
0.05 to 0.1 | 1 to 5 | Cc1ccccc1N1C[C@@H]2C[C@H]1CN2c1ncc(C(=O)NO)cn1 [N-hydroxy-2-((1S,4S)-5-o-tolyl-2,5-diazabicyclo[2.2.1]heptan-2-yl)pyrimidine-5-carboxamide] | –
< 0.05 | < 1 | Cc1ccc(N2C[C@@H]3C[C@H]2CN3c2ncc(C(=O)NO)cn2)cc1 [N-hydroxy-2-((1S,4S)-5-p-tolyl-2,5-diazabicyclo[2.2.1]heptan-2-yl)pyrimidine-5-carboxamide] | –
0.05 to 0.1 | < 1 | O=C(NO)c1cnc(N2C[C@@H]3C[C@H]2CN3c2ccccc2)nc1 [N-hydroxy-2-((1S,4S)-5-phenyl-2,5-diazabicyclo[2.2.1]heptan-2-yl)pyrimidine-5-carboxamide] | –
